For test [1], the system named is Postia placenta. Nature of the test: Standard soil-block decay test (AWPA Standard Test Method E-10). The test is classed as cell-based. The settings on record: 2HT at 0.8% in the treating solution. The text has this:
The vertical axis is percent weight loss of the wood blocks (negative numbers represent weight gain), and the horizontal axis is ACQ® wood preservative retention in the wood blocks expressed on a weight preservative/weight wood basis. […] The toxic threshold of ACQ® wood preservative against Postia placenta is estimated to be 0.7-0.8% in this test (FIG. 4).

In test [2] the test system is soil-bed decay of Southern Pine Mini-Stakes. Nature of the test: Accelerated Soil-bed Decay Test of Southern Pine Mini-Stakes (AWPA Standard Test Method E14). As to conditions: addition of 0.8% 2HT; all three retention levels; after about 10 years exposure. An excerpt:
A decay rating of 100 means no decay, and a rating of 0 indicates failure due to decay.

On to “dimethyl di(hydrogenated tallow) ammonium compound [2HT]”, for which, in test [1], the “effect on toxicity of ACQ wood preservative toward Postia placenta” value is reported as “almost double”. For the same substance, in test [2], the “effect on performance of ACQ wood preservative in soil-bed decay test” value is “improves the performance”.

These data come from patent US7993756B2, “Long-chain quaternary ammonium compounds as wood treatment agents” (Viance, LLC, priority 2005, dated 2011).
